Where “and” joins values, the source holds several entries; their conditions need not be identical. Equal entries are not always repeated. Where two headings read alike, the source gives them in different places. Positions of bridges follow the written chain, without caps; N, C: chain ends. Residues, ends and D or L forms follow the SMILES beside them.

Assay [1] concerns the target T1, SA AgrC-IV (Staphylococcus aureus, UniProt Q309Z2). In words: β-Lactamase assay, reporter strain RN10829 (P2-agrA:P3-blaZ) with pagrC-IV. The class given is cell-based. As to conditions: 100 nM cognate AIP; ± SEM; -b = no inhibition recorded at the highest AIP concentration tested; -a = only partial inhibition observed; this study (curves in Fig. S22). An excerpt: (§1) The β-lactamase reporter strain RN10829 (P2-agrA:P3-blaZ) ([62]), with pagrC-I ([63]), pagrC-II, pagrC-III, or pagrC-IV ([11]), substituting the native agr locus with a chromosomal integration of P2-agrA and P3-blaZ and a plasmid from which a wild-type variant of the corresponding AgrC is expressed, was used to assess inhibition and activation of the AgrC receptor via β-lactamase activity in response to varying concentrations of the QS modulating peptides. Overnight cultures of the reporter strains in TSB medium were diluted 1:250 in fresh TSB medium and grown to OD600 = 0.35–0.40 (early exponential phase) at 37°C. Peptide solutions (10 μL) in 1:10 serial dilutions from DMSO stock solutions (1 mM) in TSB medium (final concentrations = 10 μM–10 pM) were added to each well of a clear 96-well plate as well as solutions (10 μL) of cognate AIP (final concentration = 100 nM) in TSB medium followed by 80 μL of bacterial cells. Control wells for 100% β-lactamase activity were wells replacing peptide solution with TSB media (10 μL), and control wells for 0% β-lactamase activity were wells replacing both peptide and cognate AIP solutions with TSB medium (20 μL). The 96-well plates were incubated at 37°C shaking at 200 rpm for 1 h and immediately frozen down at −80°C to minimize growth during nitrocefin treatment. Next, the 96-well plates were thawed, and OD600 values were determined using a plate reader followed by the addition of 50 μL of nitrocefin solution to the wells (final concentration = 33.3 μg/mL). β-Lactamase activity was monitored at OD486 every 20 s for 10 min at 37°C using a plate-reader. Linear nitrocefin conversion rates were plotted to obtain IC50 values by non-linear regression with variable slope using GraphPad Prism 10.4 software. Assays were performed at least as duplicate determinations in biological triplicate.

The test system of assay [2] is S. aureus (SA) agr-IV. As to conditions: b-lactamase, cited from earlier work.
The target of assay [3] is T2, SA AgrC-I (Staphylococcus aureus, UniProt O07911). In words: β-Lactamase assay, reporter strain RN10829 (P2-agrA:P3-blaZ) with pagrC-I. The class given is cell-based.
T2 sequence (O07911 entry or part of it): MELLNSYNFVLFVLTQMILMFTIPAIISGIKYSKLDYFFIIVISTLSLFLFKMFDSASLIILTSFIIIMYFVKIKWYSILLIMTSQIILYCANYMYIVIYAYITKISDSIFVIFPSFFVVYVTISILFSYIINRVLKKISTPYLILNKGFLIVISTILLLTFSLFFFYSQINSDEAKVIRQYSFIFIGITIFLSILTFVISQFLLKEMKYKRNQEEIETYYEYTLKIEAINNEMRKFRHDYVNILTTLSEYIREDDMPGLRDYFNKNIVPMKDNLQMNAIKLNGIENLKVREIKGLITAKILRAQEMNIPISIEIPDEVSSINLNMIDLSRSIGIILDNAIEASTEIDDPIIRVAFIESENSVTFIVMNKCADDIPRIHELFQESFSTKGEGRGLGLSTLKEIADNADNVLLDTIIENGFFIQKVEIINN
Source text: as §1, with “Control wells for 100% β-lactamase activity were wells replacing peptide solution with TSB media (10 μL), and control wells for 0% β-lactamase activity were wells replacing both peptide and cognate AIP solutions with TSB medium (20 μL).” left out

Assay [4] concerns the target T3, SA AgrC-II (Staphylococcus aureus, UniProt O33587). Nature of the assay: β-Lactamase assay, reporter strain RN10829 (P2-agrA:P3-blaZ) with pagrC-II. It is filed as cell-based.
Source text: as §1

The subject of assay [5] is S. aureus (SA) agr-III. Particulars: b-lactamase, cited from earlier work.
Assay [6] has as its target T4, SA AgrC-III (Staphylococcus aureus, UniProt O33590). In words: β-Lactamase assay, reporter strain RN10829 (P2-agrA:P3-blaZ) with pagrC-III. The class given is cell-based.
Source text: as §1

For assay [7], the system named is S. aureus (SA) agr-II. As to conditions: b-lactamase, cited from earlier work.
Assay [8] deals with S. aureus (SA) agr-I. Particulars: b-lactamase, cited from earlier work.
The target of assay [9] is T3, SA AgrC-II. As to conditions: ± SEM, determined previously, ref (1), cited from earlier work; for IC50: 100 nM cognate AIP, -b = no inhibition recorded at the highest AIP concentration tested, read-out: IC50, SA AgrC-II, b-lactamase assay.
Assay [10] has as its system S. epidermidis (SE) agr-I. On the set-up: method as in ref (9) (a number printed in a supplementary file, which may have a reference list of its own: not looked up in the article's list). Particulars: HPLC d-toxin, ref (9); cited from earlier work.
The target in assay [11] is T2, SA AgrC-I. Particulars: ± SEM, determined previously, ref (1), cited from earlier work; for IC50: 100 nM cognate AIP, -b = no inhibition recorded at the highest AIP concentration tested, read-out: IC50, SA AgrC-I, b-lactamase assay.
The test system of assay [12] is S. aureus (SA) agr-III. Also noted: method as in ref (5) (a number printed in a supplementary file, which may have a reference list of its own: not looked up in the article's list). As to conditions: hemolysis; ref (5); cited from earlier work.
The test system of assay [13] is S. aureus (SA) agr-III. Particulars: fluorescence; ref (5); cited from earlier work.
The target in assay [14] is T4, SA AgrC-III. As to conditions: ± SEM, determined previously, ref (1), cited from earlier work; for IC50: 100 nM cognate AIP.
Assay [15] relates to S. epidermidis (SE) agr-I. As to conditions: fluorescence, ref (11), cited from earlier work.
Assay [16] deals with S. aureus (SA) agr-IV. Particulars: fluorescence; ref (5); cited from earlier work.
Assay [17] concerns S. aureus (SA) agr-IV. On the set-up: method as in ref (5) (a number printed in a supplementary file, which may have a reference list of its own: not looked up in the article's list). As to conditions: hemolysis; ref (5); cited from earlier work.
For assay [18], the target named is T1, SA AgrC-IV. As to conditions: ± SEM, determined previously, ref (1), cited from earlier work; for IC50: 100 nM cognate AIP, -b = no inhibition recorded at the highest AIP concentration tested, read-out: IC50, SA AgrC-IV, b-lactamase assay.
The subject of assay [19] is S. aureus (SA) agr-I. On the set-up: method as in ref (5) (a number printed in a supplementary file, which may have a reference list of its own: not looked up in the article's list). Particulars: hemolysis; ref (5); cited from earlier work.
Assay [20] deals with S. aureus (SA) agr-I. Particulars: fluorescence; ref (5); cited from earlier work.
Assay [21] relates to S. aureus (SA) agr-II. Also noted: method as in ref (5) (a number printed in a supplementary file, which may have a reference list of its own: not looked up in the article's list). Particulars: hemolysis; ref (5); cited from earlier work.
Assay [22] relates to S. aureus (SA) agr-II. Particulars: fluorescence; ref (5); cited from earlier work.

T3 sequence (O33587 entry or part of it): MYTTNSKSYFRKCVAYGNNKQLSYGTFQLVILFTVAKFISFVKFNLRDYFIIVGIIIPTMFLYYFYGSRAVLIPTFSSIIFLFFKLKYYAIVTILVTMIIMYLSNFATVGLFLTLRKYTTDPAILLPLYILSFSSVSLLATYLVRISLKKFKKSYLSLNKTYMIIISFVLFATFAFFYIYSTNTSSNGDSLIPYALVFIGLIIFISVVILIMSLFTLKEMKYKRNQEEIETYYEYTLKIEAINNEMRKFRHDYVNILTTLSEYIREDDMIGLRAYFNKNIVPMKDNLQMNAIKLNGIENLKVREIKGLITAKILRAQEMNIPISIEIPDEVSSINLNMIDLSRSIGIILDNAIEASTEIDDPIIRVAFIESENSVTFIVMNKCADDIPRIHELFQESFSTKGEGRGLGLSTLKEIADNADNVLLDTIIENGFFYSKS
T1 sequence (Q309Z2 entry or part of it): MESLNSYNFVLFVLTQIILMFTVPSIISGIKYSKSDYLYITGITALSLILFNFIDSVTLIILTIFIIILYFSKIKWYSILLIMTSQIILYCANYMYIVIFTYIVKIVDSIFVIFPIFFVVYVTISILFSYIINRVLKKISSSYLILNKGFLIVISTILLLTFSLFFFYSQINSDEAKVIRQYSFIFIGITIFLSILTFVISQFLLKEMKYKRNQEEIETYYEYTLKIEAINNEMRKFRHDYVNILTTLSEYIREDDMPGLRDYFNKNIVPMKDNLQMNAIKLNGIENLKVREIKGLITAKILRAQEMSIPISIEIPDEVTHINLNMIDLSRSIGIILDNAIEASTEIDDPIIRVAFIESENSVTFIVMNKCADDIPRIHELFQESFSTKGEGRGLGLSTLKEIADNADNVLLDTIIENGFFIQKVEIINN
T4 sequence (O33590 entry or part of it): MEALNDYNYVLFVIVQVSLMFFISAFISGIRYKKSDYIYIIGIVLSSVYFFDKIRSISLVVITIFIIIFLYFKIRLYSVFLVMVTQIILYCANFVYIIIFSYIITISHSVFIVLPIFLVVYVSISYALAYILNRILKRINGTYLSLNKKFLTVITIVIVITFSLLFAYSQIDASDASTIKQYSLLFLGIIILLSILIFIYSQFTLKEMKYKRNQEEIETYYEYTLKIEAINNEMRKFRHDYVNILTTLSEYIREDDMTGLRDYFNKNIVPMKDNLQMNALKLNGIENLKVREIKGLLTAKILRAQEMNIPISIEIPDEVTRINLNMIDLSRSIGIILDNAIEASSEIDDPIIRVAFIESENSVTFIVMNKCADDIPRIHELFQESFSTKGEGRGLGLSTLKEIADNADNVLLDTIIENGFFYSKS

Consider `CC[C@H](C)[C@H](NC(=O)[C@@H](N)CCCNC(=N)N)C(=O)N1CCC[C@H]1C(=O)N[C@H](C(=O)N[C@H]1COC(=O)[C@H](Cc2ccccc2)NC(=O)[C@H](Cc2ccccc2)NC(=O)CNC(=O)[C@H]([C@@H](C)O)NC1=O)[C@@H](C)O` [compound 31, S. intermedius AIP-I] (H-RIPTSTGFF; ester 5-C), for which, at SA AgrC-IV [1], the “IC50, SA AgrC-IV, b-lactamase assay” value is “-b”. Further, in the assay on S. aureus (SA) agr-IV [2] (from supernatant, ref (16)), the “inhibition from supernatant, SA agr-IV” value was 10–60%. The half-inhibitory concentration (IC50) on SA AgrC-I [3] is 87 ± 20 nM; against SA AgrC-II [4] it was more than 1000 nM; on SA AgrC-III [6], 104 ± 20 nM. Also, in the assay with S. aureus (SA) agr-III [5] (from supernatant, ref (16)), the “inhibition from supernatant, SA agr-III” value is 60–100%. Further, the “inhibition from supernatant, SA agr-II” value in the assay on S. aureus (SA) agr-II [7] (from supernatant, ref (16)) is reported as 40–90%. Besides, the “inhibition from supernatant, SA agr-I” value in the assay on S. aureus (SA) agr-I [8] (from supernatant, ref (16)) was 80–100%.
Regarding S. aureus AIP-II [compound 2], the EC50 at SA AgrC-II [9] (read-out: EC50, SA AgrC-II, b-lactamase assay) was 3.7 ± 0.5 nM; in the assay on S. aureus (SA) agr-II [7] (ref (3)), 34 nM and 28 nM; with S. aureus (SA) agr-II [7] (ref (4)), 30 nM; in the assay with S. aureus (SA) agr-II [7] (ref (7)) it was 40.9 nM. Further, the IC50 in the assay on S. aureus (SA) agr-IV [2] (ref (4)) is 86 nM; on SA AgrC-I [11], 110 ± 12 nM; in the assay on S. aureus (SA) agr-III [5] (ref (2)), 3.2 ± 1.3 nM; in the assay on S. aureus (SA) agr-III [5] (ref (4)), 1 nM; with S. aureus (SA) agr-III [12], 3.59 nM; with S. aureus (SA) agr-III [13], 0.53 nM. The IC50 on SA AgrC-III [14] (-b = no inhibition recorded at the highest AIP concentration tested, read-out: IC50, SA AgrC-III, b-lactamase assay) was 40 ± 15 nM; in [15] it was 62.9 nM; with S. aureus (SA) agr-IV [16], 0.4 nM; in the assay with S. aureus (SA) agr-IV [17], 1.19 nM; at SA AgrC-IV [18], 230 ± 19 nM; in the assay on S. aureus (SA) agr-I [19] it was 0.89 nM. Further, the IC50 was 2.9 ± 1.2 nM in the assay on S. aureus (SA) agr-I [8] (ref (2)); 90 nM and 78 nM in the assay on S. aureus (SA) agr-I [8] (ref (3)); 40 nM with S. aureus (SA) agr-I [8] (ref (4)); 12 ± 2.9 nM with S. aureus (SA) agr-I [8] (ref (8)); 1.62 nM in the assay on S. aureus (SA) agr-I [20]. Moreover, the “inhibition at 1000 nM, SE agr-I” value in assay [10] is listed as “no inhibition”.
With S. aureus AIP-III [compound 3], the IC50 on SA AgrC-II [9] is 150 ± 63 nM; with S. aureus (SA) agr-IV [2] (ref (4)) it was 150 nM; at SA AgrC-I [11], 120 ± 15 nM; with S. aureus (SA) agr-IV [17], 23.8 nM; on SA AgrC-IV [18], more than 1000 nM; with S. aureus (SA) agr-I [19], 8.07 nM. Also, the IC50 in the assay on S. aureus (SA) agr-II [7] (ref (4)) is 6 nM; with S. aureus (SA) agr-I [8] (ref (4)), 70 nM; with S. aureus (SA) agr-I [8] (ref (8)), 8 ± 1.1 nM; in the assay on S. aureus (SA) agr-I [20] it was 5.05 nM; in the assay with S. aureus (SA) agr-II [21], 0.46 nM. The “inhibition at 1000 nM, SE agr-I” value in assay [10] and in [15] (at 1000 nM) was “no inhibition” in each case. In addition, the concentration giving a half-maximal response (EC50) was 26 nM in the assay with S. aureus (SA) agr-III [5] (ref (4)); 406 nM with S. aureus (SA) agr-III [5] (ref (7)); 11 ± 1 nM at SA AgrC-III [14] (read-out: EC50, SA AgrC-III, b-lactamase assay).
Consider S. aureus AIP-IV [compound 4], for which the IC50 was 47 ± 9 nM at SA AgrC-II [9]; 1 nM with S. aureus (SA) agr-III [5] (ref (4)); 1.49 nM in the assay with S. aureus (SA) agr-III [12]; 0.46 nM in the assay with S. aureus (SA) agr-III [13]; 9.8 ± 0.2 nM at SA AgrC-III [14] (only partial inhibition observed, read-out: IC50, SA AgrC-III, b-lactamase assay, only partial inhibition observed (footnote a)); more than 1000 nM in assay [15]. Also, the IC50 with S. aureus (SA) agr-II [7] (ref (4)) is 4 nM; in the assay with S. aureus (SA) agr-II [22] it was 0.37 nM; with S. aureus (SA) agr-II [21] it was 0.09 nM. Besides, the EC50 with S. aureus (SA) agr-IV [2] (ref (4)) was 13 nM; in the assay with S. aureus (SA) agr-IV [2] (ref (7)), 7.9 nM; on SA AgrC-I [11] (read-out: EC50, SA AgrC-I, b-lactamase assay) it was 59 ± 2 nM; at SA AgrC-IV [18] (read-out: EC50, SA AgrC-IV, b-lactamase assay), 2.6 ± 0.2 nM; in the assay with S. aureus (SA) agr-I [8] (ref (4)) it was 62 nM. Moreover, in assay [10], the “inhibition at 1000 nM, SE agr-I” value is recorded as 40%.

For orientation: IC50 means the concentration needed to halve the response being measured. The term EC50 denotes the concentration needed to bring the measured effect to its halfway point. As a reminder, the inhibition is the percentage by which the read-out fell short of the control.

The record behind these values is PMC12345137 (mBio, 2025).
